Test results as given in patent publication US20020137929A1, “1 - (3-heterocyclylphenyl) isothiourea, -isourea, -guanidine and -amidine herbicidal agents” (Intellectual Property Department, BASF Aktiengesellschaft, priority 1998, published 2002).

How the values were obtained:
[1] = system: SAGPY (Arrowhead (Pygmaea)); assay: Postemergence weed control under flooded paddy conditions; assay type: in vivo, Sagittaria pygmaea; conditions: postemergence weeds, rated 3 to 4 weeks after treatment
How it was run: (§1)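 Containers holding 3–5 cm weeds and rice at 1.5–2.5 leaves are flooded to 1.5–3 cm above soil. Compound in 50/50 v/v aqueous/acetone is then added directly to the water, about 0.0313–0.500 kg/ha. Plants are kept in the greenhouse and rated 0–9 visually at 3–4 weeks.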

ZEAMX (Corn, Field) [2] = assay: Preemergence herbicidal evaluation; assay type: in vivo, Zea mays; conditions: rated 4-5 weeks after treatment
How it was run: (§2)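 Greenhouse preemergence test: seed-soil mix sown on ~1 inch soil; aqueous acetone spray at equivalent of ~0.0156–0.500 kg/ha; greenhouse-held and watered; scored 0–9 visually at 4–5 weeks.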

CYPIR (Rice Flatsedge) [3] = assay: Postemergence weed control under flooded paddy conditions; assay type: in vivo, Cyperus iria; conditions: postemergence weeds, rated 3 to 4 weeks after treatment
How it was run: as §1

SETVI (Foxtail, Green) [4] = assay: Postemergence herbicidal evaluation; assay type: in vivo, Setaria viridis; conditions: postemergence
How it was run: (§3)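 Each compound, dispersed in an acetone/water mix (50/50) carrying 0.5% TWEEN 20, is nozzle-sprayed at 40 psi on approximately two-week-old seedlings at about 0.0156–0.500 kg/ha. Plants are assessed 4–5 weeks afterward on a 0–9 scale relative to control; duplicate tests are averaged.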

[5] = system: ECHORC (Watergrass (Calif.)); assay: Preemergence weed control under flooded paddy conditions; assay type: in vivo, Echinochloa oryzoides; conditions: rated 3-4 weeks after treatment
How it was run: (§4)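 Seeds or propagules sown in top 0.5 cm of silt loam soil, flooded 1.5 to 3 cm above surface throughout. Compound in 50/50 v/v aqueous/acetone pipetted into flood water at about 0.0313 to 0.500 kg/ha. Visual 0-9 rating versus control after three to four weeks in greenhouse.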

ECHCG (Barnyardgrass) = assay: Preemergence herbicidal evaluation; assay type: in vivo, Echinochloa crus-galli; conditions: rated 4-5 weeks after treatment
How it was run: as §2

CYPIR (Rice Flatsedge) [6] = assay: Preemergence weed control under flooded paddy conditions; assay type: in vivo, Cyperus iria; conditions: rated 3-4 weeks after treatment
How it was run: as §4

ZEAMX (Corn, Field) [7] = assay: Postemergence herbicidal evaluation; assay type: in vivo, Zea mays; conditions: postemergence
How it was run: as §3

SETVI (Foxtail, Green) [8] = assay: Preemergence herbicidal evaluation; assay type: in vivo, Setaria viridis; conditions: rated 4-5 weeks after treatment
How it was run: as §2

CYPSE (Flatsedge) [9] = assay: Preemergence weed control under flooded paddy conditions; assay type: in vivo, Cyperus serotinus; conditions: rated 3-4 weeks after treatment
How it was run: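 Silt loam, seeds in top 0.5 cm; flood held 1.5-3 cm; test cpd as acetone/water 50/50 into flood water, ~0.0313-0.500 kg/ha a.i.; greenhouse 3-4 wk; visual 0-9 score vs control.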

CYPSE (Flatsedge) [10] = assay: Postemergence weed control under flooded paddy conditions; assay type: in vivo, Cyperus serotinus; conditions: postemergence weeds, rated 3 to 4 weeks after treatment
How it was run: as §1

ORYSAT (Rice, Tebonnet) = assay: Postemergence herbicidal evaluation; assay type: in vivo, Oryza sativa, (L.) Tebonnet; conditions: postemergence
How it was run: as §3

[11] = system: TRZAWR (Wheat, Winter, cv Riband); assay: Preemergence herbicidal evaluation; assay type: in vivo, Triticum aestivum; conditions: rated 4-5 weeks after treatment
How it was run: as §2

[12] = system: ECHORC (Watergrass (Calif.)); assay: Postemergence weed control under flooded paddy conditions; assay type: in vivo, Echinochloa oryzoides; conditions: postemergence weeds, rated 3 to 4 weeks after treatment
How it was run: as §1

CC(C)S(=O)(=O)NC(=O)CC1SC(=Nc2cc(-n3c(=O)cc(C(F)(F)F)n(C)c3=O)c(F)cc2Cl)N(C)C1=O (stereo not shown) [Compound 119, 2-{{2-Chloro-5-[3,6-dihydro-3-methyl-2,6-dioxo-4-(trifluoromethyl)-1(2H)-pyrimidinyl]-4-fluorophenyl}imino}-N-(isopropylsulfonyl)-3-methyl-4-oxo-5-thiazolidineacetamide]
Herbicidal rating SAGPY ([1]; Rate 0.0313 kg/ha): 0.0 | Herbicidal rating SAGPY ([1]; Rate 0.0625 kg/ha): 0.0 | Herbicidal rating SAGPY ([1]; Rate 0.1250 kg/ha): 0.0 | Herbicidal rating SAGPY ([1]; Rate 0.2500 kg/ha): 0.0 | Preemergence herbicidal rating ZEAMX (ZEAMX (Corn, Field) [2]; rate 0.0156 kg/ha): 0.0 | Preemergence herbicidal rating ZEAMX (ZEAMX (Corn, Field) [2]; rate 0.0313 kg/ha): 0.0 | Preemergence herbicidal rating ZEAMX (ZEAMX (Corn, Field) [2]; rate 0.0625 kg/ha): 0.0 | Preemergence herbicidal rating ZEAMX (ZEAMX (Corn, Field) [2]; rate 0.1250 kg/ha): 0.0 | Preemergence herbicidal rating ZEAMX (ZEAMX (Corn, Field) [2]; rate 0.2500 kg/ha): 1.0 | Herbicidal rating CYPIR (CYPIR (Rice Flatsedge) [3]; Rate 0.0313 kg/ha): 2.0 | Herbicidal rating CYPIR (CYPIR (Rice Flatsedge) [3]; Rate 0.1250 kg/ha): 6.0 | Herbicidal rating CYPIR (CYPIR (Rice Flatsedge) [3]; Rate 0.2500 kg/ha): 9.0 | Herbicidal rating SETVI (SETVI (Foxtail, Green) [4]; rate 0.0156 kg/ha): 3.0 | Herbicidal rating SETVI (SETVI (Foxtail, Green) [4]; rate 0.0313 kg/ha): 9.0 | Herbicidal rating SETVI (SETVI (Foxtail, Green) [4]; rate 0.0625 kg/ha): 9.0 | herbicidal effect rating, ECHORC ([5]; 0.0313 kg/ha): 8.0 | herbicidal effect rating, ECHORC ([5]; 0.0625 kg/ha): 9.0 | herbicidal effect rating, ECHORC ([5]; 0.1250 kg/ha): 9.0 | herbicidal effect rating, ECHORC ([5]; 0.2500 kg/ha): 9.0 | Preemergence herbicidal rating ECHCG (ECHCG (Barnyardgrass); rate 0.0156 kg/ha): 0.0 | Preemergence herbicidal rating ECHCG (ECHCG (Barnyardgrass); rate 0.0313 kg/ha): 0.0 | Preemergence herbicidal rating ECHCG (ECHCG (Barnyardgrass); rate 0.0625 kg/ha): 0.0 | Preemergence herbicidal rating ECHCG (ECHCG (Barnyardgrass); rate 0.1250 kg/ha): 2.0 | Preemergence herbicidal rating ECHCG (ECHCG (Barnyardgrass); rate 0.2500 kg/ha): 2.0 | herbicidal effect rating, CYPIR (CYPIR (Rice Flatsedge) [6]; 0.0313 kg/ha): 4.5 | herbicidal effect rating, CYPIR (CYPIR (Rice Flatsedge) [6]; 0.0625 kg/ha): 7.0 | herbicidal effect rating, CYPIR (CYPIR (Rice Flatsedge) [6]; 0.1250 kg/ha): 8.5 | herbicidal effect rating, CYPIR (CYPIR (Rice Flatsedge) [6]; 0.2500 kg/ha): 8.0 | Herbicidal rating ZEAMX (ZEAMX (Corn, Field) [7]; rate 0.0156 kg/ha): 4.5 | Herbicidal rating ZEAMX (ZEAMX (Corn, Field) [7]; rate 0.0313 kg/ha): 5.5 | Herbicidal rating ZEAMX (ZEAMX (Corn, Field) [7]; rate 0.0625 kg/ha): 6.0 | Preemergence herbicidal rating SETVI (SETVI (Foxtail, Green) [8]; rate 0.0156 kg/ha): 0.0 | Preemergence herbicidal rating SETVI (SETVI (Foxtail, Green) [8]; rate 0.0313 kg/ha): 0.0 | Preemergence herbicidal rating SETVI (SETVI (Foxtail, Green) [8]; rate 0.0625 kg/ha): 2.0 | Preemergence herbicidal rating SETVI (SETVI (Foxtail, Green) [8]; rate 0.1250 kg/ha): 7.0 | Preemergence herbicidal rating SETVI (SETVI (Foxtail, Green) [8]; rate 0.2500 kg/ha): 7.0 | herbicidal effect rating, CYPSE (CYPSE (Flatsedge) [9]; 0.0313 kg/ha): 0.0 | herbicidal effect rating, CYPSE (CYPSE (Flatsedge) [9]; 0.0625 kg/ha): 0.0 | herbicidal effect rating, CYPSE (CYPSE (Flatsedge) [9]; 0.1250 kg/ha): 0.0 | herbicidal effect rating, CYPSE (CYPSE (Flatsedge) [9]; 0.2500 kg/ha): 1.0 | Herbicidal rating CYPSE (CYPSE (Flatsedge) [10]; Rate 0.0313 kg/ha): 0.0 | Herbicidal rating CYPSE (CYPSE (Flatsedge) [10]; Rate 0.0625 kg/ha): 0.0 | Herbicidal rating CYPSE (CYPSE (Flatsedge) [10]; Rate 0.1250 kg/ha): 0.0 | Herbicidal rating ORYSAT (ORYSAT (Rice, Tebonnet); rate 0.0156 kg/ha): 1.5 | Herbicidal rating ORYSAT (ORYSAT (Rice, Tebonnet); rate 0.0313 kg/ha): 2.0 | Herbicidal rating ORYSAT (ORYSAT (Rice, Tebonnet); rate 0.0625 kg/ha): 3.0 | Preemergence herbicidal rating TRZAWR ([11]; rate 0.0156 kg/ha): 0.0 | Preemergence herbicidal rating TRZAWR ([11]; rate 0.0313 kg/ha): 0.0 | Preemergence herbicidal rating TRZAWR ([11]; rate 0.0625 kg/ha): 0.0 | Preemergence herbicidal rating TRZAWR ([11]; rate 0.1250 kg/ha): 0.0 | Preemergence herbicidal rating TRZAWR ([11]; rate 0.2500 kg/ha): 0.0 | Herbicidal rating ECHORC ([12]; Rate 0.0313 kg/ha): 0.0 | Herbicidal rating ECHORC ([12]; Rate 0.0625 kg/ha): 2.0 | Herbicidal rating ECHORC ([12]; Rate 0.1250 kg/ha): 4.0 | Herbicidal rating ECHORC ([12]; Rate 0.2500 kg/ha): 4.0
